Values quoted from earlier work as cited in PubChem BioAssay AID1259409 (Chemical Carcinogenesis Research Information System (CCRIS), 2018).

System: rodent chemically induced tumor inhibition, incidence and multiplicity
Assay: CCRIS tumor inhibitor studies

In the case of CC1=C(/C=C/C(C)=C/C=C/C(C)=C/C(=O)Nc2ccc(O)cc2)C(C)(C)CCC1, the “tumour outcome (control, treated, inhibition, significance)” value (Carcinogen: N-METHYL-N-NITROSOUREA, 684-93-5, Dose [Inhibitor]: 2 MMOL/KG DIET DAILY STARTING 12 D AFTER CARCINOGEN TREATMENT THROUGH ABOUT 8 MO AFTER CARCINOGEN DOSE (STUDY DURATION:, Route [Inhibitor]: ORAL, Species: RAT, Strain/Sex: F344/MALE, Target Tissue: Type of Lesion: COLON: ADENOMA, Dose [Carcinogen]: 2.5 MG 1/WK FOR 2 WK, Promoter: NONE USED) is given as 16/39 (41%), 11/30 (37%), 10%, not significant, the “tumour outcome (control, treated, inhibition, significance)” value (Carcinogen: N-METHYL-N-NITROSOUREA, 684-93-5, Dose [Inhibitor]: 587 MG/KG DIET FROM D 7-20 AFTER CARCINOGEN ADMINISTRATION THEN REDUCED TO 391 MG/KG DIET FOR REMAINDER OF STUDY (STUDY, Route [Inhibitor]: ORAL, Species: RAT, Strain/Sex: SPRAGUE-DAWLEY/FEMALE, Target Tissue: Type of Lesion: MAMMARY GLAND: ADENOCARCINOMA, Dose [Carcinogen]: 20 MG/KG BW ONCE, Promoter: NONE USED) is given as 64%, 50%, 22%, not significant and the “tumour outcome (control, treated, inhibition, significance)” value (Carcinogen: N-METHYL-N-NITROSOUREA, 684-93-5, Dose [Inhibitor]: 587 MG/KG IN DIET FROM D 7-20 AFTER CARCINOGEN DOSE THEN REDUCED TO 391 MG/KG IN DIET FOR REMAINDER OF STUDY (STUDY DURA, Route [Inhibitor]: ORAL, Species: RAT, Strain/Sex: SPRAGUE-DAWLEY/FEMALE, Target Tissue: Type of Lesion: MAMMARY GLAND: ADENOCARCINOMA, Dose [Carcinogen]: 20 MG/KG BW ONCE, Promoter: NONE USED) is given as 64%, 50%, 22%, not significant. The “tumour outcome (control, treated, inhibition, significance)” value (Carcinogen: N-METHYL-N-NITROSOUREA, 684-93-5, Dose [Inhibitor]: O.O3 MMOL 3/WK STARTING 12 D THROUGH ABOUT 8 MO AFTER FIRST CARCINOGEN DOSE (STUDY DURATION: APPROXIMATELY 8 MO), Route [Inhibitor]: INTRARECTAL, Species: RAT, Strain/Sex: F344/MALE, Target Tissue: Type of Lesion: COLON: ADENOCARCINOMA, Dose [Carcinogen]: 2.5 MG 1/WK FOR 2 WK, Promoter: NONE USED) was 3/39 (8%), 6/39 (15%), -88%, not significant, the “tumour outcome (control, treated, inhibition, significance)” value (Carcinogen: N-METHYL-N-NITROSOUREA, 684-93-5, Dose [Inhibitor]: O.O3 MMOL 3/WK STARTING 12 D THROUGH ABOUT 8 MO AFTER FIRST CARCINOGEN DOSE (STUDY DURATION: APPROXIMATELY 8 MO), Route [Inhibitor]: INTRARECTAL, Species: RAT, Strain/Sex: F344/MALE, Target Tissue: Type of Lesion: COLON: ADENOMA, Dose [Carcinogen]: 2.5 MG 1/WK FOR 2 WK, Promoter: NONE USED) was 11/39 (28%), 23/39 (59%), -111%, p<0.05 and the “tumour outcome (control, treated, inhibition, significance)” value (Carcinogen: N-METHYL-N-NITROSOUREA, 684-93-5, Dose [Inhibitor]: O.O3 MMOL 3/WK STARTING 15 D PRIOR TO THROUGH ABOUT 8 MO AFTER FIRST CARCINOGEN DOSE (STUDY DURATION: APPROXIMATELY 8 MO, Route [Inhibitor]: INTRARECTAL, Species: RAT, Strain/Sex: F344/MALE, Target Tissue: Type of Lesion: COLON: ADENOCARCINOMA, Dose [Carcinogen]: 2.5 MG 1/WK FOR 2 WK, Promoter: NONE USED) was 3/39 (8%), 5/39 (13%), -63%, not significant. For the same compound, the “tumour outcome (control, treated, inhibition, significance)” value (Carcinogen: N-METHYL-N-NITROSOUREA, 684-93-5, Dose [Inhibitor]: O.O3 MMOL 3/WK STARTING 15 D PRIOR TO THROUGH ABOUT 8 MO AFTER FIRST CARCINOGEN DOSE (STUDY DURATION: APPROXIMATELY 8 MO, Route [Inhibitor]: INTRARECTAL, Species: RAT, Strain/Sex: F344/MALE, Target Tissue: Type of Lesion: COLON: ADENOMA, Dose [Carcinogen]: 2.5 MG 1/WK FOR 2 WK, Promoter: NONE USED) was 11/39 (28%), 14/39 (36%), -29%, not significant, the “tumour outcome (control, treated, inhibition, significance)” value (Carcinogen: N-METHYL-N-NITROSUREA, 684-93-5, Dose [Inhibitor]: 0, 782 MG/KG OF CASEIN BASED AIN-76A DIET FOR DURATION OF STUDY BEGINNING 7 D PRIOR TO CARCINOGEN DOSE (STUDY DURATION:, Route [Inhibitor]: ORAL, Species: RAT, Strain/Sex: F344/FEMALE, Target Tissue: Type of Lesion: MAMMARY GLAND: TUMOR, Dose [Carcinogen]: 45 MG/KG BW ONCE AT 50 D OF AGE, Promoter: NONE USED) was 18/25 (72%), 21/25 (84%), -17%, not significant and the “tumour outcome (control, treated, inhibition, significance)” value (Carcinogen: N-NITROSOBIS(2-OXOPROPLYL)AMINE [60599-38-4], DL-ETHIONINE [67-21-0], L-METHIONINE [63-68-3], Carcinogen: N-NITROSOBIS(2-OXOPROPLYL)AMINE [60599-38-4], DL-ETHIONINE [67-21-0], L-METHIONINE [63-68-3], Dose [Inhibitor]: 0, 0.0015% IN DIET FOR 55 D BEGINNING ON DAY 50, 1 WK POST LAST CARCINOGEN DOSE (STUDY DURATION: 105 D), Route [Inhibitor]: ORAL, Species: HAMSTER, Target Tissue: Type of Lesion: LIVER: INTRAHEPATIC CHOLANGIOCARCINOMA, Dose [Carcinogen]: 50 MG/KG BOP ONCE ON DAY 0, THEN 20 MG/KG TWICE ON DAYS 18 AND 32, 500 MG/KG DL-ETHIONINE 1X/D FOR 4 D BEGINNING ON DAY, Dose [Carcinogen]: 50 MG/KG BOP ONCE ON DAY 0, THEN 20 MG/KG TWICE ON DAYS 18 AND 32, 500 MG/KG DL-ETHIONINE 1X/D FOR 4 D BEGINNING ON DAY, Promoter: CHOLINE-DEFICIENT DIET) was 7/17 (41%), 8/16 (50%), -22%, not significant. For the same compound, the “tumour outcome (control, treated, inhibition, significance)” value (Carcinogen: N-NITROSOBIS(2-OXOPROPLYL)AMINE [60599-38-4], DL-ETHIONINE [67-21-0], L-METHIONINE [63-68-3], Carcinogen: N-NITROSOBIS(2-OXOPROPLYL)AMINE [60599-38-4], DL-ETHIONINE [67-21-0], L-METHIONINE [63-68-3], Dose [Inhibitor]: 0, 0.0015% IN DIET FOR 55 D BEGINNING ON DAY 50, 1 WK POST LAST CARCINOGEN DOSE (STUDY DURATION: 105 D), Route [Inhibitor]: ORAL, Species: HAMSTER, Target Tissue: Type of Lesion: PANCREATIC DUCT, CARCINOMA, Dose [Carcinogen]: 50 MG/KG BOP ONCE ON DAY 0, THEN 20 MG/KG TWICE ON DAYS 18 AND 32, 500 MG/KG DL-ETHIONINE 1X/D FOR 4 D BEGINNING ON DAY, Dose [Carcinogen]: 50 MG/KG BOP ONCE ON DAY 0, THEN 20 MG/KG TWICE ON DAYS 18 AND 32, 500 MG/KG DL-ETHIONINE 1X/D FOR 4 D BEGINNING ON DAY, Promoter: CHOLINE-DEFICIENT DIET) was 17/17 (100%), 15/16 (94%), 6%, not significant, the “tumour outcome (control, treated, inhibition, significance)” value (Carcinogen: N-NITROSOBIS(2-OXOPROPLYL)AMINE [60599-38-4], DL-ETHIONINE [67-21-0], L-METHIONINE [63-68-3], Carcinogen: N-NITROSOBIS(2-OXOPROPLYL)AMINE [60599-38-4], DL-ETHIONINE [67-21-0], L-METHIONINE [63-68-3], Dose [Inhibitor]: 0, 0.004% IN DIET FOR 55 D BEGINNING ON DAY 50, 1 WK POST LAST CARCINOGEN DOSE (STUDY DURATION: 105 D), Route [Inhibitor]: ORAL, Species: HAMSTER, Target Tissue: Type of Lesion: LIVER: INTRAHEPATIC CHOLANGIOCARCINOMA, Dose [Carcinogen]: 50 MG/KG BOP ONCE ON DAY 0, THEN 20 MG/KG TWICE ON DAYS 18 AND 32, 500 MG/KG DL-ETHIONINE 1X/D FOR 4 D BEGINNING ON DAY, Dose [Carcinogen]: 50 MG/KG BOP ONCE ON DAY 0, THEN 20 MG/KG TWICE ON DAYS 18 AND 32, 500 MG/KG DL-ETHIONINE 1X/D FOR 4 D BEGINNING ON DAY, Promoter: CHOLINE-DEFICIENT DIET) was 7/17 (41%), 13/19 (68%), -68%, not significant and the “tumour outcome (control, treated, inhibition, significance)” value (Carcinogen: N-NITROSOBIS(2-OXOPROPLYL)AMINE [60599-38-4], DL-ETHIONINE [67-21-0], L-METHIONINE [63-68-3], Carcinogen: N-NITROSOBIS(2-OXOPROPLYL)AMINE [60599-38-4], DL-ETHIONINE [67-21-0], L-METHIONINE [63-68-3], Dose [Inhibitor]: 0, 0.004% IN DIET FOR 55 D BEGINNING ON DAY 50, 1 WK POST LAST CARCINOGEN DOSE (STUDY DURATION: 105 D), Route [Inhibitor]: ORAL, Species: HAMSTER, Target Tissue: Type of Lesion: PANCREATIC DUCT, CARCINOMA, Dose [Carcinogen]: 50 MG/KG BOP ONCE ON DAY 0, THEN 20 MG/KG TWICE ON DAYS 18 AND 32, 500 MG/KG DL-ETHIONINE 1X/D FOR 4 D BEGINNING ON DAY, Dose [Carcinogen]: 50 MG/KG BOP ONCE ON DAY 0, THEN 20 MG/KG TWICE ON DAYS 18 AND 32, 500 MG/KG DL-ETHIONINE 1X/D FOR 4 D BEGINNING ON DAY, Promoter: CHOLINE-DEFICIENT DIET) was 17/17 (100%), 19/19 (100%), 0%, not significant. For the same compound, the “tumour outcome (control, treated, inhibition, significance)” value (Carcinogen: N-NITROSOBIS(2-OXOPROPLYL)AMINE [60599-38-4], DL-ETHIONINE [67-21-0], L-METHIONINE [63-68-3], Carcinogen: N-NITROSOBIS(2-OXOPROPLYL)AMINE [60599-38-4], DL-ETHIONINE [67-21-0], L-METHIONINE [63-68-3], Dose [Inhibitor]: 0, 0.01% IN DIET FOR 55 D BEGINNING ON DAY 50, 1 WK POST LAST CARCINOGEN DOSE (STUDY DURATION: 105 D), Route [Inhibitor]: ORAL, Species: HAMSTER, Target Tissue: Type of Lesion: LIVER: INTRAHEPATIC CHOLANGIOCARCINOMA, Dose [Carcinogen]: 50 MG/KG BOP ONCE ON DAY 0, THEN 20 MG/KG TWICE ON DAYS 18 AND 32, 500 MG/KG DL-ETHIONINE 1X/D FOR 4 D BEGINNING ON DAY, Dose [Carcinogen]: 50 MG/KG BOP ONCE ON DAY 0, THEN 20 MG/KG TWICE ON DAYS 18 AND 32, 500 MG/KG DL-ETHIONINE 1X/D FOR 4 D BEGINNING ON DAY, Promoter: CHOLINE-DEFICIENT DIET) was 7/17 (41%), 14/17 (82%), -100%, p<0.05.
